According to patent US9834521B2, “Choline kinase inhibitors” (ARIAD Pharmaceuticals, Inc., priority 2013, dated 2017):
pIC50, pKd: −log10 of the molar value. Read-outs that look alike come from different tables or passages of the source.

Assays:
[1] = biological target: T1, truncated form of human Choline kinase α1 that includes residues 75-457 (Homo sapiens, UniProt P35790); assay: Kinase Assay, coupled (ATP regeneration) LDH/PK assay, NADH absorbance; format: biochemical
T1 construct: made in house
T1 sequence (P35790 75-457): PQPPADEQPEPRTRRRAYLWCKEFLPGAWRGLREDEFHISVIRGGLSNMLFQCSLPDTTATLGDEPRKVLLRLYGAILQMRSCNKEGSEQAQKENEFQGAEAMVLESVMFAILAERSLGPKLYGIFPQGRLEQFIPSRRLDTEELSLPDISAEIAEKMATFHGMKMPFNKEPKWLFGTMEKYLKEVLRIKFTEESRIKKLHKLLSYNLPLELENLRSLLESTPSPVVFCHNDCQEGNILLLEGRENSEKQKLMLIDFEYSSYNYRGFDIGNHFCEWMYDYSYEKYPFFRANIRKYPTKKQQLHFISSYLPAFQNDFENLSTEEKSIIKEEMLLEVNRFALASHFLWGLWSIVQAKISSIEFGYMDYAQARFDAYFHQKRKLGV
Method: Absorbance of NADH (340 nm) was measured over 30 min using a SpectraMax M5 (Molecular Devices). Initial reaction velocity (ΔA340/Δt) was calculated and plotted as a function of inhibitor concentration in a 2-fold dilution series. IC50 values were obtained by fitting the relative velocities to a dose-response model.

[2] = biological target: T2, ChoKα protein (Homo sapiens, UniProt P35790); assay: Binding affinity by surface plasmon resonance (SensiQ Pioneer, FastStep)
T2 construct: made in house
T2 sequence (P35790 75-457): as above
Method: KD may be measured using surface plasmon resonance (BIAcore®) technology, see, e.g., Panayotou et al, Mol. Cell. […] ChoKα protein was immobilized by standard amine coupling methods on a COOH5 sensor chip installed in a SensiQ Pioneer system. Sensograms were measured using the FastStep™ screen method with an upper concentration of 500 nM. Kinetics and affinity were obtained from fits using a 1:1 binding model.

[3] = Examples not designated with an asterisk, footnote prints version 1 of the Kinase Assay, read-out: IC50
[4] = SPR, 1:1 binding model, upper concentration 500 nM, read-out: Kd
[5] = Examples designated with an asterisk (*): version 1 of the Kinase Assay, 200 nM enzyme, read-out: IC50

Structure (SMILES)	pIC50 [1, 3]	pKd [2, 4]	further results
CNC(=O)Nc1ccc(-c2ccc(CN3CCCN(C)CC3)cc2C#N)cc1 [Example 114, 1-(2′-cyano-4′-((4-methyl-1,4-diazepan-1-yl)methyl)-[1,1′-biphenyl]-4-yl)-3-methylurea]	> 7.00	> 7.00	–
CN1CCCN(Cc2ccc(-c3ccc(C(F)(F)F)cc3)cc2)CC1 [Example 137, 1-methyl-4-((4′-(trifluoromethyl)-[1,1′-biphenyl]-4-yl)methyl)-1,4-diazepane]	–	–	pIC50 [1]: > 6.70; pKd [2]: > 4.22
CN1CCCN(Cc2ccc(-n3cccn3)cc2F)CC1 [Example 142, 1-(2-fluoro-4-(1H-pyrazol-1-yl)benzyl)-4-methyl-1,4-diazepane]	–	> 4.22	pIC50 [1, 5]: > 6.70
CCN(CC)C1CCN(Cc2ccc(-c3ccc(CN4CCCN(C)CC4)cc3C#N)cc2)CC1 [Example 15, 4′-((4-(diethylamino)piperidin-1-yl)methyl)-4-((4-methyl-1,4-diazepan-1-yl)methyl)-[1,1′-biphenyl]-2-carbonitrile]	> 7.00	> 7.30	–
CN1CCCN(Cc2ccc(CN3CCC(N4CCCC4)CC3)cc2)CC1 [Example 148, 1-methyl-4-(4-((4-(pyrrolidin-1-yl)piperidin-1-yl)methyl)benzyl)-1,4-diazepane]	–	> 4.22	pIC50 [1, 5]: > 6.70
Cc1cc(CN2CCCN(C)CC2)ccc1-c1ccc(CO)cc1 [Example 51, (2′-methyl-4′-((4-methyl-1,4-diazepan-1-yl)methyl)-[1,1′-biphenyl]-4-yl)methanol]	> 6.70	> 4.22	–
CN1CCCN(Cc2ccc(-c3ccc(CN4CCN(C)CC4)cc3)c(C#N)c2)CC1 [Example 11, 4-((4-methyl-1,4-diazepan-1-yl)methyl)-4′-((4-methylpiperazin-1-yl)methyl)-[1,1′-biphenyl]-2-carbonitrile]	> 6.70	> 6.70	–
CN1CCCN(Cc2ccc(-c3ccc(C(=O)N4CCCN(C)CC4)cc3-c3cccc([N+](=O)[O-])c3)c(C#N)c2)CC1 [Example 77, 4-((4-methyl-1,4-diazepan-1-yl)methyl)-4′-(4-methyl-1,4-diazepane-1-carbonyl)-3″-nitro-[1,1′:2′,1″-terphenyl]-2-carbonitrile]	> 7.00	> 7.30	–
CN1CCCN(Cc2ccc(-c3ccc(CN4CCCN(C)CC4)cc3[N+](=O)[O-])cc2)CC1 [Example 57, 4,4′-((2-nitro-[1,1′-biphenyl]-4,4′-diyl)bis(methylene))bis(1-methyl-1,4-diazepane)]	> 7.00	> 7.00	–
CN1CCCN(Cc2ccc(-c3ccc(C(=O)N4CCCN(C)CC4)cc3-c3ccc(O)cc3)c(C#N)c2)CC1 [Example 69, 4″-hydroxy-4-((4-methyl-1,4-diazepan-1-yl)methyl)-4′-(4-methyl-1,4-diazepane-1-carbonyl)-[1,1′:2′,1″-terphenyl]-2-carbonitrile]	> 7.00	> 7.30	–
CN(C)CCCNC(=O)c1ccc(-c2ccc(CN3CCCN(C)CC3)cc2C#N)cc1 [Example 30, 2′-cyano-N-(3-(dimethylamino)propyl)-4′-((4-methyl-1,4-diazepan-1-yl)methyl)-[1,1′-biphenyl]-4-carboxamide]	> 7.00	> 7.30	–
CN1CCCN(Cc2ccc(CNc3cccc(C(N)=O)c3)cc2)CC1 [Example 152, 3-((4-((4-methyl-1,4-diazepan-1-yl)methyl)benzyl)amino)benzamide]	–	> 4.22	pIC50 [1, 5]: > 6.70
CN1CCCN(Cc2ccc(-c3ccc(CN4CCOCC4)cc3)c(C#N)c2)CC1 [Example 9, 4-((4-methyl-1,4-diazepan-1-yl)methyl)-4′-(morpholinomethyl)-[1,1′-biphenyl]-2-carbonitrile]	> 6.70	> 7.00	–
CN1CCCN(Cc2ccc(-n3cncn3)cc2)CC1 [Example 139, 1-(4-(1H-1,2,4-triazol-1-yl)benzyl)-4-methyl-1,4-diazepane]	–	> 4.22	pIC50 [1, 5]: > 6.30
CN1CCCN(Cc2ccc(-c3ccc(C(=O)N4CCCN(C)CC4)cc3-c3ccc(CN4CCOCC4)cc3)c(C#N)c2)CC1 [Example 80, 4-((4-methyl-1,4-diazepan-1-yl)methyl)-4′-(4-methyl-1,4-diazepane-1-carbonyl)-4″-(morpholinomethyl)-[1,1′:2′,1″-terphenyl]-2-carbonitrile]	> 7.00	> 7.30	–
CN1CCCN(Cc2ccc(-c3ccc(C(=O)N4CCCN(C)CC4)cc3N)c(C#N)c2)CC1 [Example 64, 2′-amino-4-((4-methyl-1,4-diazepan-1-yl)methyl)-4′-(4-methyl-1,4-diazepane-1-carbonyl)-[1,1-biphenyl]-2-carbonitrile]	> 6.70	> 4.22	–
CN1CCCN(Cc2ccc(-c3ccc(C(=O)N4CCCN(C)CC4)cc3C#N)c(C#N)c2)CC1 [Example 63, 4-((4-methyl-1,4-diazepan-1-yl)methyl)-4′-(4-methyl-1,4-diazepane-1-carbonyl)-[1,1′-biphenyl]-2,2′-dicarbonitrile]	> 6.70	> 6.70	–

Structure (SMILES)	pIC50 [1, 3]	pKd [2, 4]	further results
CCOc1ccc(-c2cc(C(=O)N3CCCN(C)CC3)ccc2-c2ccc(CN3CCCN(C)CC3)cc2C#N)cc1 [Example 79, 4″-ethoxy-4-((4-methyl-1,4-diazepan-1-yl)methyl)-4′-(4-methyl-1,4-diazepane-1-carbonyl)-[1,1′1:2′,1″-terphenyl]-2-carbonitrile]	> 7.00	> 7.30	–
CN1CCCN(Cc2ccc(-c3ccc(C(=O)N4CCCN(C)CC4)cc3-c3cc(F)cc(F)c3)c(C#N)c2)CC1 [Example 78, 3″,5″-difluoro-4-((4-methyl-1,4-diazepan-1-yl)methyl)-4′-(4-methyl-1,4-diazepane-1-carbonyl)-[1,1′:2′,1″-terphenyl]-2-carbonitrile]	> 7.00	> 7.30	–
CN1CCCN(Cc2ccc(-c3ccc(Oc4ccccc4N)cc3)c(C#N)c2)CC1 [Example 115, 4′-(2-aminophenoxy)-4-((4-methyl-1,4-diazepan-1-yl)methyl)-[1,1′-biphenyl]-2-carbonitrile]	> 5.70	–	–
CC(=O)N1CCN(C(=O)c2ccc(-c3ccc(CN4CCCN(C)CC4)cc3)cc2)CC1 [Example 38, 1-(4-(4′-((4-methyl-1,4-diazepan-1-yl)methyl)-[1,1′-biphenyl]-4-carbonyl)piperazin-1-yl)ethanone]	> 4.30	–	–
CN1CCCN(Cc2ccc(-c3ccccc3C(N)=O)cc2)CC1 [Example 133, 4′-((4-methyl-1,4-diazepan-1-yl)methyl)-[1,1′-biphenyl]-2-carboxamide]	> 4.30	–	–
CN1CCCN(Cc2ccc(CCCCc3ccc(CN4CCCN(C)CC4)cc3)cc2)CC1 [Example 154, 1,4-bis(4-((4-methyl-1,4-diazepan-1-yl)methyl)phenyl)butane]	–	–	pIC50 [1, 5]: > 4.30
CCOC(=O)Cc1ccc(-c2ccc(CN3CCCN(C)CC3)cc2)cc1 [Example 130, ethyl 2-(4′-((4-methyl-1,4-diazepan-1-yl)methyl)-[1,1′-biphenyl]-4-yl)acetate]	> 4.30	–	–
CN1CCCN(Cc2ccc(N3CCS(=O)(=O)CC3)cc2)CC1 [Example 145, 4-(4-((4-methyl-1,4-diazepan-1-yl)methyl)phenyl)thiomorpholine 1,1-dioxide]	–	–	pIC50 [1, 5]: > 4.30
CN1CCCN(Cc2ccc(-c3ccc(C(=O)N4CCCN(C)CC4)cc3F)cc2)CC1 [Example 59, (2-fluoro-4′-((4-methyl-1,4-diazepan-1-yl)methyl)-[1,1′-biphenyl]-4-yl)(4-methyl-1,4-diazepan-1-yl)methanone]	> 5.70	–	–
CN1CCCN(Cc2ccc(-c3cccc4ccccc34)c(C#N)c2)CC1 [Example 125, 5-((4-methyl-1,4-diazepan-1-yl)methyl)-2-(naphthalen-1-yl)benzonitrile]	> 4.30	–	–
CN1CCCN(Cc2ccc(-c3ccc(/C(N)=N/O)cc3)c(C#N)c2)CC1 [Example 99, (E)-2′-cyano-N′-hydroxy-4′-((4-methyl-1,4-diazepan-1-yl)methyl)-[1,1′-biphenyl]-4-carboximidamide]	> 6.30	–	–
CN1CCCN(Cc2ccc(-c3ccc(C(=O)N4CCCN(C)CC4)cc3N(C)C)c(C#N)c2)CC1 [Example 62, 2′-(dimethylamino)-4-((4-methyl-1,4-diazepan-1-yl)methyl)-4′-(4-methyl-1,4-diazepane-1-carbonyl)-[1,1′-biphenyl]-2-carbonitrile]	> 6.30	–	–
CN1CCC(N2CCN(Cc3ccc(CN4CCCN(C)CC4)cc3)CC2)CC1 [Example 149, 1-methyl-4-(4-((4-(1-methylpiperidin-4-yl)piperazin-1-yl)methyl)benzyl)-1,4-diazepane]	–	–	pIC50 [1, 5]: > 4.30
CN1CCCN(Cc2ccc(N3CCCC3=O)cc2)CC1 [Example 144, 1-(4-((4-methyl-1,4-diazepan-1-yl)methyl)phenyl)pyrrolidin-2-one]	–	–	pIC50 [1, 5]: > 4.30
CN1CCCN(Cc2ccc(CN3CCN(CCO)CC3)cc2)CC1 [Example 147, 2-(4-(4-((4-methyl-1,4-diazepan-1-yl)methyl)benzyl)piperazin-1-yl)ethanol]	–	–	pIC50 [1, 5]: > 4.30
CN1CCCN(Cc2ccc(-c3ccc(C(=O)N(C)C)cc3)c(C#N)c2)CC1 [Example 20, 2′-cyano-N,N-dimethyl-4′-((4-methyl-1,4-diazepan-1-yl)methyl)-[1,1′-biphenyl]-4-carboxamide]	> 4.30	–	–
CN1CCCN(Cc2ccc(-c3ccc(CN4CCCN(C)CC4)cc3CN)cc2)CC1 [Example 52, (4,4′-bis((4-methyl-1,4-diazepan-1-yl)methyl)-[1,1′-biphenyl]-2-yl)methanamine]	> 6.30	–	–
